molecular target: T1, uterine OT receptors (Rattus norvegicus, UniProt P70536); assay: [3H]Oxytocin (OT) radioligand binding to uterine OT receptors, crude uterine membranes from DES-treated rats; settings: not given
T1 construct: from tissue; host or cells: uterus of diethylstilbestrol dipropionate (DES)-treated rats, crude membrane preparation
T1 sequence (P70536 1-388): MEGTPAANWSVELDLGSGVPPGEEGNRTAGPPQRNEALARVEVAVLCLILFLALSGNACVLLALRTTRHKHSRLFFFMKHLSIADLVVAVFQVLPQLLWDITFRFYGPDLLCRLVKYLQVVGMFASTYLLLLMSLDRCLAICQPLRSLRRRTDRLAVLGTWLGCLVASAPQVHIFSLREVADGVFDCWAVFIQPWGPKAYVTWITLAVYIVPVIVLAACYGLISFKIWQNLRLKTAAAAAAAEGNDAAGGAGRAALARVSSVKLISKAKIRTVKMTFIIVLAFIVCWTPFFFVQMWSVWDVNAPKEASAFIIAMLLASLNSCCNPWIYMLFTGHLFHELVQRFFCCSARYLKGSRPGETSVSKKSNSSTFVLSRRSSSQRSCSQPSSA
Experimental: Competition studies were conducted at equilibrium (60 minutes; 22° C.) using 1 nM[^3 H]OT in the following assay buffer: 50 mM Tris-HCl, 5 mM MgCl2, and 0.1% BSA, pH 7.4. Nonspecific binding (10% of the total binding) was determined using 1 μM unlabeled OT and the binding reaction was terminated by filtration through glass fiber filters using a cell harvester (model 7019, Skatron, Inc., Sterling, Va.).
IC50 values were determined for the [^3 H]OT and [^3 H]AVP binding assays by linear regression of the relation log concentration of compound vs. percent inhibition of specific binding. Data is either reported as a given percentage of inhibition at a specified concentration,or if an IC50 was calculated, as a nanomolar concentration.

For `O=C(/C=C/c1ccccc1)N1CCC(N2C(=O)OCc3ccccc32)CC1` [Example 7, 1-(1-(Cinnamoyl)piperidin-4-yl)-1,2-dihydro-4(H)-3,1-benzoxazin-2-one], which IC50 is on record?
The IC50 was 6200 nM.

How did the IC50 turn out when `O=C(Nc1ccc(CC(=O)N2CCC(N3C(=O)OCc4ccccc43)CC2)cc1)c1ccc2[nH]cnc2c1` [Example 9, 1-(1-(4-((5-Benzimidazolylcarbonyl)amino)phenylacetyl)piperidin-4-yl)-1,2-dihydro-4(H)-3,1-benzoxazin-2-one] was run?
Its IC50 is 280 nM.

How did the IC50 turn out when `COc1cc(OCCCN)ccc1C(=O)N1CCC(N2C(=O)OCc3ccccc32)CC1` [Example 12, 1-(1-(4-(3-Aminopropoxy)-2-methoxybenzoyl)piperidin-4-yl)-1,2-dihydro-4(H)-3,1-benzoxazin-2-one] was run?
The IC50 was 410 nM.

How did the IC50 turn out when `COc1cc(OCCCNC(=O)C2CCNCC2)ccc1C(=O)N1CCC(N2C(=O)OCc3ccccc32)CC1` [Example 14, 1-(1-(4-(3-(4-Piperidinylcarbonylamino)propoxy)-2-methoxybenzoyl)piperidin-4-yl)-1,2-dihydro-4(H)-3,1-benzoxazin-2-one] was run?
Its IC50 is 74 nM.

For `COc1cc(OCCCNC(=O)C2CCNCC2)c(Cl)cc1C(=O)N1CCC(N2C(=O)OCc3ccccc32)CC1` [Example 15, 1-(1-(4-(3-(4-Piperidinylcarbonylamino)propoxy)-6-methoxy-3-chlorobenzoyl)piperidin-4-yl)-1,2-dihydro-4(H)-3,1-benzoxazin-2-one], which IC50 is on record?
Its IC50 is 56 nM.

For `COc1cc(OCCCNS(C)(=O)=O)ccc1C(=O)N1CCC(N2C(=O)OCc3ccccc32)CC1` [Example 17, 1-(1-(4-(3-((Methylsulfonyl)amino)propoxy)-2-methoxybenzoyl)piperidin-4-yl)-1,2-dihydro-4(H)-3,1-benzoxazin-2-one], which IC50 is on record?
Its IC50 is 81 nM.

How did the IC50 turn out when `COc1cc(OCCCN2C(=O)CN(C)C2=O)ccc1C(=O)N1CCC(N2C(=O)OCc3ccccc32)CC1` [Example 22, 1-(1-(4-(3-(1-Methylimidazoline-2,4-dione-3-yl)propoxy)-2-methoxybenzoyl)piperidin-4-yl)-1,2-dihydro-4(H)-3,1-benzoxazin-2-one] was run?
The IC50 was 260 nM.

With `CC(=O)N(C)CCCOc1ccc(C(=O)N2CCC(N3C(=O)OCc4ccccc43)CC2)cc1` [Example 24, 1-(1-(4-(3-(N-Methyl(acetylamino))propoxy)benzoyl)piperidin-4-yl)-1,2-dihydro-4(H)-3,1-benzoxazin-2-one] as the compound, how does the IC50 read?
The IC50 was 550 nM.

`COc1cc(OC2CCN(C(=O)CCCN)CC2)ccc1C(=O)N1CCC(N2C(=O)OCc3ccccc32)CC1` [Example 30, 1-(1-(4-(1-(4-Aminobutanoyl)-4-piperidinyloxy)-2-methoxybenzoyl)piperidin-4-yl)-1,2-dihydro-4(H)-3,1-benzoxazin-2-one] was tested. Which IC50 did it give?
Its IC50 is 69 nM.

For `COc1ccc(C(=O)N2CCC(N3C(=O)OCc4ccccc43)CC2)c([N+](=O)[O-])c1` [Example 44, 1-(1-(4-Methoxy-2-nitrobenzoyl)piperidin-4-yl)-1,2-dihydro-4(H)-3,1-benzoxazin-2-one], which IC50 is on record?
Its IC50 is 5000 nM.

`COc1cc(OC2CCN(C(=O)Cc3cnc[nH]3)CC2)ccc1C(=O)N1CCC(N2C(=O)OCc3ccccc32)CC1` [Example 45, 1-(1-(4-(1-(4(5)-Imidazolylacetyl)-4-piperidinyloxy)-2-methoxybenzoyl)piperidin-4-yl)-1,2-dihydro-4(H)-3,1-benzoxazin-2-one] was tested. Which IC50 did it give?
Its IC50 is 44 nM.

Which IC50 does the source give for `CCN(CC)CCS(=O)(=O)N1CCC(Oc2ccc(C(=O)N3CCC(N4C(=O)OCc5ccccc54)CC3)c(OC)c2)CC1` [Example 46, 1-(1-(4-(1-(Diethylaminoethylsulfonyl)-4-piperidinyloxy)-2-methoxybenzoyl)piperidin-4-yl)-1,2-dihydro-4(H)-3,1-benzoxazin-2-one] here?
The IC50 was 23 nM.

For `CCOC(=O)CN1CCC(Oc2ccc(C(=O)N3CCC(N4C(=O)OCc5ccccc54)CC3)c(OC)c2)CC1` [Example 48, 1-(1-(4-(1-(Ethoxycarbonylmethyl)-4-piperidinyloxy)-2-methoxybenzoyl)piperidin-4-yl)-1,2-dihydro-4(H)-3,1-benzoxazin-2-one], which IC50 is on record?
The IC50 was 340 nM.

Which IC50 does the source give for `O=C(c1ccc(OC2CCNCC2)cc1Cl)N1CCC(N2C(=O)OCc3ccccc32)CC1` [Example 52, 1-(1-(4-(4-Piperidinyloxy)-2-chlorobenzoyl)piperidin-4-yl)-1,2-dihydro-4(H)-3,1-benzoxazin-2-one] here?
The IC50 was 4300 nM.

For `COc1ccc(C(=O)N2CCC(N3C(=O)Cc4ccccc43)CC2)c(OC)c1` [Example 55, 1-(1-(2,4-dimethoxybenzoyl)-4-piperidyl)indol-2-one], which IC50 is on record?
Its IC50 is 6200 nM.

`COc1cc(OC2CCN(S(=O)(=O)CCCN(C)C3CC3)CC2)ccc1C(=O)N1CCC(N2C(=O)OCc3ccccc32)CC1` [Example 66, 1-(1-(4-(1-((3-N-Cyclopropyl-N-methylamino)propylsulfonyl)piperidin-4-yloxy)-2-methoxybenzoyl)piperidin-4-yl)-1,2-dihydro-4(H)-3,1-benzoxazin-2-one] was tested. Which IC50 did it give?
Its IC50 is 25 nM.

same assay, conditions: competition vs 1 nM [3H]OT, 60 minutes, 22° C., pH 7.4, rat uterus membranes; read-out: Result For [3H]OT (IC50)

Which IC50 does the source give for `COc1ccc(C(=O)N2CCC(N3C(=O)OCc4sccc43)CC2)c(OC)c1` [Example 63, 1-(1-(2,4-dimethoxybenzoyl)piperidin-4-yl)-1,2-dihydro-4 (H)-3,1-thienoxazin-2-one] here?
Its IC50 is 590 nM.

same assay, conditions: inhibition at 1,000 nM; 1 nM [3H]OT, 60 minutes, 22° C., pH 7.4; read-out: Result For [3H]OT (% inhib. at 1,000 nM)

With `COc1cc(C(=O)N2CCN(C(=O)OC(C)(C)C)CC2)ccc1C(=O)N1CCC(N2C(=O)OCc3ccccc32)CC1` [Example 39, 1-(1-(4-(4-(t-Butyloxycarbonyl)piperazin-1-ylcarbonyl)-2-methoxybenzoyl)piperidin-4-yl)-1,2-dihydro-4(H)-3,1-benzoxazin-2-one] as the compound, how does the inhibition at 1 µM read?
The inhibition at 1 µM was 46%.

How did the inhibition at 1 µM turn out when `COc1cc(OC2CCN(C(=O)OC(C)(C)C)CC2)ccc1C(=O)N1CCC(N2C(=O)COc3ccccc32)CC1` [Example 41, 4-(1-(4-(4-(1-t-Butyloxycarbonyl)piperidinyloxy)-2-methoxybenzoyl)piperidin-4-yl)-(2H)-1,4-benzoxazin-3(4H)-one] was run?
Its inhibition at 1 µM is 42%.

Which inhibition at 1 µM does the source give for `Cc1cc(OC2CCN(C(=O)OC(C)(C)C)CC2)ccc1C(=O)N1CCC(N2C(=O)OCc3ccccc32)CC1` [Example 43, 1-(1-(4-(N-t-Butoxycarbonyl-4-piperidinyloxy)-2-methylbenzoyl)piperidin-4-yl)-1,2-dihydro-4(H)-3,1-benzoxazin-2-one] here?
Its inhibition at 1 µM is 59%.

`CC(C)(C)OC(=O)N1CCC(C(=O)NCCCOc2ccc(C(=O)N3CCC(N4C(=O)OCc5ccccc54)CC3)c(O)c2)CC1` [Example 49, 1-(1-(4-(3-(N-t-Butyloxycarbonylpiperidin-4-ylcarbonylamino)propoxy)-2-hydroxybenzoyl)piperidin-4-yl)-1,2-dihydro-4(H)-3,1-benzoxazin-2-one] was tested. Which inhibition at 1 µM did it give?
The inhibition at 1 µM was 72%.

same assay, conditions: inhibition at 10,000 nM; 1 nM [3H]OT, 60 minutes, 22° C., pH 7.4; read-out: Result For [3H]OT (% inhib. at 10,000 nM)

Which inhibition at 10 µM does the source give for `COc1cc(OC)c(C(=O)N2CCC(N3C(=O)OCc4ccccc43)CC2)c(OC)c1` [Example 1] here?
Its inhibition at 10 µM is 61%.

`O=C(c1ccccn1)N1CCC(N2C(=O)OCc3ccccc32)CC1` [Example 3] was tested. Which inhibition at 10 µM did it give?
Its inhibition at 10 µM is 40%.

How did the inhibition at 10 µM turn out when `O=C(c1cc2ccccc2[nH]1)N1CCC(N2C(=O)OCc3ccccc32)CC1` [Example 4] was run?
The inhibition at 10 µM was 78%.

Which inhibition at 10 µM does the source give for `O=C(c1ccc(OCC2CCCNC2)cc1)N1CCC(N2C(=O)OCc3ccccc32)CC1` (centres unmarked) [Example 32, 1-(1-(4-(3-Piperidinylmethoxy)benzoyl)piperidin-4-yl)-1,2-dihydro-4(H)-3,1-benzoxazin-2-one] here?
Its inhibition at 10 µM is 78%.

How did the inhibition at 10 µM turn out when `COc1ccc(C(=O)N2CCC(N3C(=O)N(C)Cc4ccccc43)CC2)c(OC)c1` [Example 36, 1-(2,4-Dimethoxybenzoylpiperidin-4-yl)-3,4-dihydro-3-methylquinazolin-2(1H)-one] was run?
The inhibition at 10 µM was 48%.

For `COc1ccc(C(=O)N2CC(N3C(=O)OCc4ccccc43)C2)c(OC)c1` [Example 57, 1-(1-(2,4-Dimethoxybenzoyl)azetidin-3-yl)-1,2-dihydro-4(H)-3,1-benzoxazin-2-one], which inhibition at 10 µM is on record?
Its inhibition at 10 µM is 54%.

`COc1ccc(C(=O)N2CCC(N3C(=O)OCc4ccccc43)CC2C#N)c(OC)c1` (centres unmarked) [Example 60, 1-(1-(2,4-dimethoxybenzoyl)-2-cyanopiperidin-4-yl)-1,2-dihydro-4(H)-3,1-benzoxazin-2-one] was tested. Which inhibition at 10 µM did it give?
The inhibition at 10 µM was 70%.

How did the inhibition at 10 µM turn out when `COc1ccc(C(=O)N2CCC(N3C(=O)OC(C)(C)c4ccccc43)CC2)c(OC)c1` [Example 61, 1-(1-(2,4-dimethoxybenzoyl)piperidin-4-yl)-4,4-dimethyl-1,2-dihydro-4(H)-3,1-benzoxazin-2-one] was run?
The inhibition at 10 µM was 64%.
